The source of these data is patent US12030897B2, “Pyrrolo[2,1-f][1,2,4]triazine derivatives serving as selective HER2 inhibitors and application thereof” (MEDSHINE DISCOVERY INC., priority 2018, dated 2024).

A short description of data set [1]: Pharmacokinetic properties in rats. Type of data set: in vivo. The note with it: male, SD. The procedure: The tested compound was dissolved in 10% NMP/10% polyethylene glycol-15-hydroxystearate/80% water, vortexed and sonicated to prepare a 2.5 mg/mL clear solution, which was filtered through a millipore filter for use. Three male SD rats were administered intravenously with the candidate compound solution at a dose of 5 mg/kg. The tested compound was dissolved in 10% polyethylene glycol-15-hydroxystearate/90% water (50 mM citrate buffer, pH 3.0), adjusted to pH of about 3.5, vortexed and sonicated to prepare a 5 mg/ml clear solution, which was filtered through a millipore filter for use. Three male SD rats were administered orally with the candidate compound solution at a dose of 50 mg/kg. The whole-blood for a certain period of time was collected to prepare plasma. The drug concentration was analyzed by the LC-MS/MS method, and the pharmacokinetic parameters were calculated by the Phoenix WinNonlin software (Pharsight, USA).

Data set [2] deals with BT-474 cell. The experiment in a line: Cell proliferation inhibitory activity, Cell-Titer-Glo, BT-474. The note with it: Homo sapiens, BT-474, 72 h; 3 days incubation. The format is cell-based. An excerpt: Experiment object: to detect the inhibitory activity of the tested compound on cell proliferation.
Experimental principle: the luciferase in the Cell-Titer-Glo reagent uses luciferin, oxygen and ATP as reaction substrates to produce oxyluciferin and release energy in the form of light. Since the luciferase reaction requires ATP, the total amount of light produced by the reaction is proportional to the total amount of ATP that reflects cell viability.
Experimental Materials: • cell lines: NCI-N87 cell line (ATCC-CRL-5822); BT-474 cell line (ATCC-HTB-20) • Cell culture medium: RPMI 1640 medium (Invitrogen #22400-105; 10% serum Invitrogen #10090148; L-glutamine 1×, Gibco #25030-081; double antibody Hyclone #SV30010) • CellTiter-Glo® luminescence cell viability detection kit (Promega #G7573) • 384-well cell culture plate (Greiner #781090) • Compound plate (LABCYTE #LP-0200) • CO2 incubator (Thermo #371) • Vi-cell cell counter (Beckman Coulter) • Pipette (Eppendorf) • Pipette (Greiner) • Pipetting gun (Eppendorf) • Multifunctional microplate reader (Envision Reader) • ECHO Liquid-handling workstation (Labcyte-ECHO555)
The cells were inoculated in a 384-well plate with a density of 1000 cells per well and 25 μL per well. The edge wells were not inoculated with cells, and was supplemented with 25 μL of phosphate buffer.
The compound was added to the plate with 9 μL per well.
(2) The compound was diluted with ECHO liquid-handling workstation, and each well of the cell plate was added with 125 nL of compound. Each well of the cell wells of columns 2 and 23 was added with 125 nL of DMSO, and each well of the Media wells of columns 1 and 24 was added with 125 nL of DMSO.
(3) Each well of the cell plate was supplemented with 25 μL of culture medium, and the final volume in each well of the cell plate was 50 μL. The concentration of the compound was 10 μM, which was subjected to 3 fold dilution to obtain 10 concentrations. Each concentration was duplicated in left and right wells, and the final DMSO concentration was 0.25%.
2.3 After adding the compound, it was centrifuged at 1000 rpm for 1 min. The cell plate was placed in a 37° C., 5% CO2 incubator for 3 days.
The cell plate was taken from the incubator and equilibrated at room temperature for 30 min. 25 μL of Cell-Titer-Glo reagent was added to each well, shaken for 1 min to make it thoroughly mixed, and centrifuged at 1000 rpm for 1 min. After 10 min, the plate was read on PerkinElmer Envision, and the […] reading time was set to 0.2 seconds.

For data set [3], the target named is CYP2C19 (Homo sapiens (Human), UniProt P33261). The experiment in a line: Inhibition of human liver microsomal cytochrome P450 isoenzyme CYP2C19. Type of data set: in vitro ADME. As to conditions: human liver microsomes. The method, then:
The object of this study was to evaluate the effect of Example 4 on the activities of five isoenzymes (CYP1A2, CYP2C9, CYP2C19, CYP2D6 and CYP3A4) of human liver microsomal cytochrome P450 (CYP) using an in vitro test system. The specific probe substrates of CYP450 isozymes were incubated with human liver microsomes and different concentrations of Example 4, and reduced nicotinamide adenine dinucleotide phosphate (NADPH) was added to initiate the reaction. After the reaction was completed, the samples were treated, and liquid chromatography tandem mass spectrometry (LC/MS/MS) was used to detect the metabolites produced by specific substrates.
On the technique in general: Liver microsomes are vesicles of endoplasmic reticulum, rich in cytochrome P450 enzymes.

The target of data set [4] is HER1 (ErbB1) (Homo sapiens (Human), UniProt P00533). As to the kind of experiment: In vitro enzyme activity, HER1 (ErbB1), [γ-33P]ATP filter assay. Type of data set: biochemical. The method, then:
The object of this test is to detect the in vitro inhibitory activity of the compound against HER1 (ErbB1), HER2 (ErbB2) and HER4 (ErbB4). The enzymes used in this test were human ErbB1, ErbB2 and ErbB4.
Experimental Steps and Methods (96-Well Plate):
5-fold diluted tested compound buffer (5 μL), peptide substrate poly(Glu, Tyr) (4:1) (2.5 μL), ErbB (4-20 ng, 2.5 μL), MnCl2 (50 mM, 1.25 μL), dH2O (3.75 μL) and [γ-^33P]ATP (10 μL) were added, and incubated at 30° C. for 10 min. 3% phosphoric acid was added to terminate the reaction, and 10 μL of the specimen was transferred to Filtermate A. The filter was washed with 75 mM phosphoric acid for three times and methanol once, and transferred to a sealed plastic bag, and a scintillation fluid mixture (4 mL) was added, The intensity of the emitted photons was detected on the scintillation luminescence counter. The photon intensity of the enzyme sample was compared with the photon intensity of the internal control sample, and the level of photon intensity reflected the strength of the tyrosine kinase activity.

Data set [5] in a line: Concentration of Example 4 in plasma, tumor tissue and brain tissue (NCI-N87 model, day 21). Type of data set: in vivo, BALB/c nude mice. The note with it: BALB/c nude, mouse, 100 mg/kg; for concentration at 0.5 h: day 21, 0.5 h after last administration; for concentration at 1 h: day 21, 1 h after last administration; for concentration at 2 h: day 21, 2 h after last administration. The procedure:
On day 21, the whole blood, tumor tissue, and brain tissue of two mice were collected 0.5 hour, 1 hour, and 2 hours after the last administration. The whole blood was centrifuged to prepare plasma, and the tumor tissue and brain tissue were homogenized to prepare tissue homogenate, and the drug concentration in plasma and tissue homogenate was analyzed by the LC-MS/MS method.

[6] abbreviates: brain tissue, read-out: Drug concentration, brain tissue.
Where [7] appears, read: plasma, read-out: Drug concentration, plasma.
Setting [8] is: tumor tissue, read-out: Drug concentration, tumor tissue.

Read-outs that look alike come from different tables or passages of the source.

Chain of HER1 (ErbB1) (P00533 25-1210): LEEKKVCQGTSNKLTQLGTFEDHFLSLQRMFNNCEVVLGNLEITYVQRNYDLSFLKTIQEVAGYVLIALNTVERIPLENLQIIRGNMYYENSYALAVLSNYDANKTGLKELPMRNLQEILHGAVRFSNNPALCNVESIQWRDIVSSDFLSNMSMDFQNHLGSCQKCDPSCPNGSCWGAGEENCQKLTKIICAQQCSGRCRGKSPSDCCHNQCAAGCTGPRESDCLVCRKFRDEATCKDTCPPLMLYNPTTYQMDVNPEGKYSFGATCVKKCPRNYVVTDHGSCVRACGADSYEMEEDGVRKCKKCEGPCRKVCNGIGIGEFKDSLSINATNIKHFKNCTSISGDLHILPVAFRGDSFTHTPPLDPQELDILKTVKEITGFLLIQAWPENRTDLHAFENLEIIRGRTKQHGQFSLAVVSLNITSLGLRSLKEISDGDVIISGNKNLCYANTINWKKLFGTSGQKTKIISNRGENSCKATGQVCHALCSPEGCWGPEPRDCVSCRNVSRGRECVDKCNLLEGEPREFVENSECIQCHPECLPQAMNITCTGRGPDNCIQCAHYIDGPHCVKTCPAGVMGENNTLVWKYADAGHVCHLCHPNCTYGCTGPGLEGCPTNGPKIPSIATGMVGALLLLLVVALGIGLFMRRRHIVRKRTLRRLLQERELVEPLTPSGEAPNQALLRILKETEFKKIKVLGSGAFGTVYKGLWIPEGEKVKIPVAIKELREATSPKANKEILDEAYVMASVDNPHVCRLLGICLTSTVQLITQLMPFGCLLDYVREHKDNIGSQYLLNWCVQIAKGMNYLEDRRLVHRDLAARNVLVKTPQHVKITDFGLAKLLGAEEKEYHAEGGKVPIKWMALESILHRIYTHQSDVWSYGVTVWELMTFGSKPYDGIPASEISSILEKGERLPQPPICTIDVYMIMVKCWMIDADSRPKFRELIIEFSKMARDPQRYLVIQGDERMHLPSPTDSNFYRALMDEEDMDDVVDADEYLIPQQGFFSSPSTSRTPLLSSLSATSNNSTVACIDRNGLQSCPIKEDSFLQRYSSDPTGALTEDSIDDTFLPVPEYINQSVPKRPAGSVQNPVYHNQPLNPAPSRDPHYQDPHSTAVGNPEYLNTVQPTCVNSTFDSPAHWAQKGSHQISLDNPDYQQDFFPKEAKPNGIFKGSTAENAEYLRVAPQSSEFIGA
Chain of CYP2C19 (P33261 whole entry): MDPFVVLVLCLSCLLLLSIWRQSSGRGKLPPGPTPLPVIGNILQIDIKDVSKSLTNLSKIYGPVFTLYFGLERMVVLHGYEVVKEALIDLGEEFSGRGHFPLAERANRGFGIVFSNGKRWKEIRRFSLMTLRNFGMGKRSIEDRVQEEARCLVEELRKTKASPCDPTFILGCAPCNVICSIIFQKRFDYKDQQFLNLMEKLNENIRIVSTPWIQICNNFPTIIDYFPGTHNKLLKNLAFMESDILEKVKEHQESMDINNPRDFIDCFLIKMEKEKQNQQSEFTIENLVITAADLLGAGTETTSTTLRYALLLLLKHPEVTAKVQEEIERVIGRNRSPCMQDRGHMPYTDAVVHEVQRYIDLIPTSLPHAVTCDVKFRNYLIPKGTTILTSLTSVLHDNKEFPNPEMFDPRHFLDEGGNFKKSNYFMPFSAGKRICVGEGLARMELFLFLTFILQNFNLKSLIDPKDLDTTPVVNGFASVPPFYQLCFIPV

What is called clearance is a measure of how efficiently the substance is removed, as volume per time. A higher clearance goes with a high capacity for elimination. As a reminder, the bioavailability is the share of a dose that reaches the circulation, judged against a reference dose that is usually intravenous. Broadly, the AUC(0-inf) is total exposure, with the tail of the curve extrapolated. A high value points to more exposure. One may read the AUC(0-t) as the area under the concentration-time curve up to a stated or last time point. Higher therefore signals more exposure. By half-life is commonly meant how long it takes for the measured level to halve. The term Cmax denotes the maximum level reached in the sampled fluid or tissue. A word on the Tmax: it is the time at which the peak concentration occurs. For orientation: IC50 means the concentration that gives 50% inhibition. In data set [1] (plasma, rat, IV 5 mg/kg), `Cc1cc(Nc2ncnn3ccc(CN4CCC(N)CC4)c23)ccc1Oc1ccn2ncnc2c1` [Example 4] returned a clearance of 25.4 mL/min/kg. The Vd in data set [1] (plasma, rat, IV 5 mg/kg, read-out: Vdss) came to 5.86 L/kg. For the same compound, the bioavailability in data set [1] (plasma, rat, PO 50 mg/kg, read-out: F (oral bioavailability)) was 49.6%. In data set [1] (rat plasma, IV 5 mg/kg), this compound gave an AUC(0-inf) of 6.95 µM·h, an AUC(0-t) of 6.91 µM·h and a half-life of 3.34 h. In data set [1] (rat plasma, PO 50 mg/kg), the AUC(0-inf) stood at 34.9 µM·h, the AUC(0-t) worked out at 34.3 µM·h, the Cmax was 3.63 µM and the Tmax came out at 3.33 h. In data set [1] (rat plasma, PO 50 mg/kg), this compound showed a half-life of 3.9 h. In addition, 23 nM corresponded to half-maximal inhibition in data set [2] (IC50). The same compound came in with an IC50 in data set [3] of 36100 nM. The compound also gave an IC50 in data set [4] of 161 nM. For the same compound, in data set [5] (setting [6]), the concentration at 0.5 h stood at 0.538 µM, the concentration at 1 h came to 0.631 µM and the concentration at 2 h is 1.01 µM. For the same compound, in data set [5] (setting [7]), the concentration at 0.5 h stood at 8.6 µM, the concentration at 1 h came to 7.58 µM and the concentration at 2 h amounted to 12.8 µM. In data set [5] (setting [8]), the concentration at 0.5 h is 9.45 µM, the concentration at 1 h is 11.2 µM and the concentration at 2 h came out at 21.4 µM.
